Assay results published in patent US10414756B2, “2-(2,4,5-substituted aniline) pyrimidine derivative, pharmaceutical composition and use thereof” (Nanjing Diansu Biological Technology Co., Ltd., priority 2014, dated 2019).
Counter-ions that a name gives are not always drawn.

How the values were obtained:
NCI-H1975 = experiment: Test 5: effect in nude mice implanted with NCI-H1975; format: in vivo
Description: Test 5: Effect Assess in Nude Mice Implanted with NCI-H1975
To nude mice implanted with NCI-H1975, was administered 3.6 μgig (compound/nude mice weight) once a day in one group, and 7.2 μgig once a day in another group, and the tumor size was observed after continuous administration for 10 days.

[1] = Test 4: stability of compounds in human liver microsomes; format: in vitro ADME; details: for Remaining Percentage (%) 0 h / Remaining Percentage (%) 8 h / Remaining Percentage (%) 16 h / Remaining Percentage (%) 24 h / Remaining Percentage (%) 32 h / Remaining Percentage (%) 48 h: 0.5 mg/mL liver microsomal protein, 1 mM NADPH, 37° C., N=1; for Half-time period: human liver microsomes
Description: Test 4: Evaluation of Stability of Compounds in Human Liver Microsomes
Assay system: the metabolic stability of the compounds in the present invention were determined by employing a mixture of male and female liver microsomes (Jiangyin Qi Biotechnology Co., Ltd.) and 1 mM NADPH. Samples were analyzed by a mass spectrometer. HRMS was used to determine the peak area response ratio (corresponding to the peak area of the compound to be tested or control compound being divided by the peak area of the internal standard) without running the standard curve. In order to detect all possible metabolites, HRMS scan were performed within an appropriate m/z range.
Determination condition: the assay was performed with one time incubation (N=1). The compounds to be tested were incubated at 37° C. in a PBS buffer containing 0.5 mg/mL liver microsomal protein.
Determination quality control: compare the testosterone of control compound in parallel to determine the enzyme […] of (liver) microsomes. After the last time point, […]
Aqueous phase (A): 90% water, 10% buffer;
Organic phase (B): 90% acetonitrile, 10% buffer;
Autosampler: injection volume 10 μL

[2] = Effect Embodiment 2: rat pharmacokinetics after intragastric administration; format: in vivo, SD rats; details: rats, 25 mg/kg intragastric, n=6, compared with AZD9291
From the text: 2.1. Grouping of Experimental Animals:
24 SD rats were half male and half female, randomly divided into 4 groups, 6 rats in each group, half male and half female
1-3 male, NO. […] 7-9 male, NO. 10-12 female
2.2. Experimental Reagents and Administration Modes
Intragastric Administration:
2. grouping and weighing rats;
4. the blood samples were centrifuged, supernatant was extracted, treated, and analyzed.

[3] = Dose 3.6 μg/g once a day for 10 days
[4] = Dose 7.2 μg/g once a day for 10 days

Remaining Percentage (%) 0 h [1] [%] | Remaining Percentage (%) 8 h [1] [%] | Remaining Percentage (%) 16 h [1] [%] | Remaining Percentage (%) 24 h [1] [%] | Remaining Percentage (%) 32 h [1] [%] | Remaining Percentage (%) 48 h [1] [%] | Half-time period [1] [h] | Structure (SMILES) | tumor size 11th d (NCI-H1975; [3]) [mm] | tumor size 0 d (NCI-H1975; Dose 3.6 μg/g once a day) [mm] | tumor size 11th d (NCI-H1975; [4]) [mm] | tumor size 0 d (NCI-H1975; Dose 7.2 μg/g once a day) [mm] | inhibitory effect on tumor growth (NCI-H1975; low dose (3.6 μg/g)) | pharmacokinetics (mean drug concentration-time curve, FIG. 2) [2]
100 | 89 | 81 | 72 | 63 | 51 | >48 | [2H]C([2H])([2H])Oc1cc(N(C)CCN(C)C)c(NC(=O)C=C)cc1Nc1nccc(-c2cn(C)c3ccccc23)n1 [Embodiment 4B, N-(2-{2-dimethylaminoethyl-methylamino}-4-(D3-methoxy)-5-{[4-(1-methylindol-3-yl)pyrimidin-2-yl]amino}phenyl)-2-acrylamide mesylate] | 8 | 13 | 6 | 11 |  | 
100 | 91 | 84 | 75 | 69 | 66 | >48 | [2H]C([2H])([2H])N(CCN(C)C)c1cc(OC)c(Nc2nccc(-c3cn(C)c4ccccc34)n2)cc1NC(=O)C=C [Embodiment 5B, N-(2-{2-dimethylaminoethyl-(D3-methyl)amino}-4-methoxy-5-{[4-(1-methylindol-3-yl)pyrimidin-2-yl]amino}phenyl)-2-acrylamide mesylate] | 10 | 11 | 8 | 14 |  | 
100 | 92 | 80 | 76 | 65 | 58 | >48 | [2H]C([2H])([2H])N(CCN(C)c1cc(OC)c(Nc2nccc(-c3cn(C([2H])([2H])[2H])c4ccccc34)n2)cc1NC(=O)C=C)C([2H])([2H])[2H] [Embodiment 6B, N-(2-{2-di(D3-methyl)aminoethyl-methylamino}-4-methoxy-5-{[4-(1-(D3-methyl)indol-3-yl)pyrimidin-2-yl]amino}phenyl)-2-acrylamide mesylate] |  |  |  |  |  | 

The next lines start with the molecule.

Structure (SMILES) | Remaining Percentage (%) 0 h [1] [%] | Remaining Percentage (%) 8 h [1] [%] | Remaining Percentage (%) 16 h [1] [%] | Remaining Percentage (%) 24 h [1] [%] | Remaining Percentage (%) 32 h [1] [%] | Remaining Percentage (%) 48 h [1] [%] | Half-time period [1] [h] | tumor size 11th d (NCI-H1975; [3]) [mm] | tumor size 0 d (NCI-H1975; Dose 3.6 μg/g once a day) [mm] | tumor size 11th d (NCI-H1975; [4]) [mm] | tumor size 0 d (NCI-H1975; Dose 7.2 μg/g once a day) [mm] | inhibitory effect on tumor growth (NCI-H1975; low dose (3.6 μg/g)) | pharmacokinetics (mean drug concentration-time curve, FIG. 2) [2]
C=CC(=O)Nc1cc(Nc2nccc(-c3cn(C)c4ccccc34)n2)c(OC)cc1N(C)CCN(C)C.CS(=O)(=O)O [AZD9291, reference compound] | 100 | 82 | 61 | 48 | 34 | 14 | 24 | 13 | 13 | 8 | 12 | very low inhibitory effect on tumor growth | 
[2H]C([2H])([2H])N(C)CCN(C)c1cc(OC)c(Nc2nccc(-c3cn(C)c4ccccc34)n2)cc1NC(=O)C=C [Embodiment 1B, N-(2-{2-[methyl(D3-methyl)amino]ethyl-methylamino}-4-methoxy-5-{[4-(1-methylindol-3-yl)pyrimidin-2-yl]amino}phenyl)-2-acrylamide mesylate] | 100 | 93 | 86 | 77 | 70 | 67 | >48 | 6 | 12 | 5 | 13 |  | 
[2H]C([2H])([2H])N(CCN(C)c1cc(OC)c(Nc2nccc(-c3cn(C)c4ccccc34)n2)cc1NC(=O)C=C)C([2H])([2H])[2H] [Embodiment 2B, N-(2-{2-di(D3-methyl)aminoethyl-methylamino}-4-methoxy-5-{[4-(1-methylindol-3-yl)pyrimidin-2-yl]amino}phenyl)-2-acrylamide mesylate] | 100 | 97 | 90 | 82 | 75 | 81 | >48 | 5 | 12 | 4 | 12 |  | 
[2H]C([2H])([2H])n1cc(-c2ccnc(Nc3cc(NC(=O)C=C)c(N(C)CCN(C)C)cc3OC)n2)c2ccccc21 [Embodiment 3B, N-(2-{2-dimethylaminoethyl-methylamino}-4-methoxy-5-{[4-(1-D3-methyl)indol-3-yl)pyrimidin-2-yl]amino}phenyl)-2-acrylamide mesylate] | 100 | 90 | 82 | 73 | 64 | 55 | >48 | 9 | 14 | 7 | 13 |  | better pharmacokinetics
